Some test systems named below: SNB-75 CNS; OVCAR-4 ovarian; K-562 leukemia; HOP-62 NSCLC; SK-MEL-5 melanoma; A498 renal; UO-31 renal; PC-3 prostate; KM12 colon; UACC-257 melanoma.
Test in all cases: NCI tumour cell line growth inhibition, 48 h

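Each compound was tested at five concentrations against cells in 96-well plates for 48 hours. TGI denotes the concentration required for complete inhibition of growth.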

As to `CN1CCN2CCN(C)CCN(CC1)CC2`, the TGI in the experiment with SNB-75 CNS, in the experiment with OVCAR-4 ovarian, with K-562 leukemia, in the experiment on HOP-62 NSCLC, in the experiment on SK-MEL-5 melanoma and in the experiment with A498 renal was over 100 µM in each case. Further, the TGI with UO-31 renal, with PC-3 prostate, with KM12 colon and with UACC-257 melanoma was over 100 µM each time.

Regarding `CCN(CC)C(=O)CCNC(C)Cc1c[nH]c2ccccc12` (stereo not given), the TGI with SNB-75 CNS, in the experiment with OVCAR-4 ovarian, in the experiment on K-562 leukemia, with HOP-62 NSCLC, with SK-MEL-5 melanoma and in the experiment with A498 renal was over 100 µM throughout. The TGI in the experiment on UO-31 renal, in the experiment on PC-3 prostate, in the experiment with KM12 colon and with UACC-257 melanoma was over 100 µM throughout.

Turning to `COc1ccc([C@H]2C=C(c3cc(F)c(Cl)cc3Cl)N=c3s/c(=C\c4ccc(-c5ccc(Cl)cc5Cl)o4)c(=O)n32)cc1`, the TGI with SNB-75 CNS is over 100 µM; in the experiment on OVCAR-4 ovarian, over 100 µM; with K-562 leukemia, over 100 µM; with HOP-62 NSCLC, 45.3 µM; in the experiment with SK-MEL-5 melanoma, over 100 µM; with A498 renal, 6.58 µM. The TGI with UO-31 renal, with PC-3 prostate, with KM12 colon and with UACC-257 melanoma was over 100 µM in each case.

`Cc1c(OCc2cccc3ccccc23)ccc2c(=O)cc(S)oc12`: the TGI in the experiment on SNB-75 CNS, in the experiment on OVCAR-4 ovarian, with K-562 leukemia, in the experiment with HOP-62 NSCLC, in the experiment with SK-MEL-5 melanoma and in the experiment with A498 renal was over 100 µM throughout. For the same compound, the TGI in the experiment on UO-31 renal, in the experiment on PC-3 prostate, in the experiment on KM12 colon and in the experiment on UACC-257 melanoma was over 100 µM in each case.

Source of the values: PubChem BioAssay (NCI).
